Legend:
[1] = system: S. aureus; assay: Time-kill kinetics against S. aureus; format: cell-based, Staphylococcus aureus; conditions: 2 × MIC (6.25 μM), dark
Description: Similar to the MIC assay, the overnight culture of S. aureus incubated under darkness was diluted in fresh MHB and grown to the mid log phase. The S. aureus was then diluted to 1 × 10^6 CFU/mL in cation-adjusted MHB. Three mL of diluted S. aureus was transferred into a 15 mL culture tube. 2 × MIC and 4 × MIC of TPA-1 was added into the bacterial culture and incubated under darkness for 24 h. 2 × MIC of vancomycin and PBS were taken as the positive and negative controls, respectively. At time 0, 0.5, 1, 2, 4, 6, 8, and 24 h, 20 μL of the bacteria culture was taken out. The bacteria were serially diluted, and the number of viable bacteria was recorded using the plate counting method. The experiment was performed in triplicate.

[2] = Cytotoxicity (MTT) assay against HFF-1 cells; format: cell-based; conditions: human, no irradiation, read-out: 50% cytotoxicity concentration (CC50) against HFF-1 cells
Description: The cytotoxicity of TPA-1, TPA-0, and TPA-NC-1 against HFF-1 cells was evaluated using the 3-(4,5-dimethylthiazol-2-yl)-2,5-diphenyltetrazolium bromide (MTT) assay kit from ThermoFisher Scientific. In general, HFF-1 cells (MEM, 10% FBS, and 1% penicillin-streptomycin) were seeded in a 96-well plate with a density of 3000 cells/well overnight at 37 °C with 5% CO2. Then, the cells were treated with different concentrations of compounds for 24 h. MTT (10 μL, 5 mg/mL) was added to the medium, and the cells were further incubated for 3 h. The medium was then replaced by DMSO (100 μL). After gently shaking the plate for 30 s, the optical density of the solutions at 570 nm was measured by a BMG Labtech CLARIOstar microplate reader. The cell viability was calculated as (ODcompound – ODDMSO)/(ODmedium - ODDMSO) × 100% where ODcompound, ODmedium, and ODDMSO are the optical densities of the treated cell, nontreated cells, and DMSO at 570 nm, respectively. The experiment was conducted in triplicate. The CC50 values were calculated using GraphPad Prism 8.

[3] = system: S. aureus; assay: Resistance development assay on S. aureus; format: cell-based, Staphylococcus aureus
Description: The MICs for TPA-1 and norfloxacin against S. aureus were first determined by the above-mentioned method. The wells with 0.5 × MIC of compounds were transferred to 1 mL fresh MHB and incubated under darkness for 3–4 h at 37 °C. The bacteria were then used to conduct a MIC assay again. The experiments were repeated for 20 days. The fold changes in the MIC values of the compounds were recorded. The experiments were performed in duplicate.

[4] = system: P. aeruginosa biofilm; assay: Photodynamic eradication of biofilm bacteria; format: cell-based, Pseudomonas aeruginosa; conditions: light irradiation at 600 nm for 45 min
Description: For biofilm bacteria, overnight culture of S. aureus or P. aeruginosa was diluted to 1 × 10^5 CFU/mL in TSB (with 1% glucose). Portion of 100 μL of the diluted bacteria culture was added to the wells of a 96-well plate. The plate was incubated under darkness for 24 h at 37 °C. Then, the planktonic bacterial suspensions were removed from the wells. The biofilms were washed with PBS (3 times) to remove any remaining planktonic bacteria. Different concentrations of TPA-1 were dissolved in PBS. TPA-1 solution was added to the biofilms (120 μL for S.aureus, 150 μL for P.aeruginosa). After 20 min of incubation under darkness at 30 °C, the biofilms were kept in the dark or irradiated by 600 nm light (60 mW/cm^2) for 15, 30, and 45 min. After that, the TPA-1 solution was replaced by 120 μL of PBS. The biofilm was then suspended in PBS by scratching, followed by sonication (5 min, ≤42 kHz) and vortex (5 min, 950 rpm). The number of viable bacteria was determined by the plate counting method. All experiments were carried out in triplicate.

## C#CCC[n+]1c(/C=C/c2ccc(-c3ccc(N(c4ccc(OCCC[N+](C)(C)C)cc4)c4ccc(OCCC[N+](C)(C)C)cc4)cc3)s2)sc2ccccc21.[Br-].[Br-].[Br-] [TPA-1]
[1]
  time to completely eradicate S. aureus: ≤ 2 h
[2]
  CC50 at 24 h: 260 ± 40 µM
[3]; 20 days of passages at 0.5 × MIC
  increase of MIC against S. aureus after treatment for 20 days: 2 fold
[3]; Staphylococcus aureus, read-out: initial MIC against S. aureus in resistance development assay
  MIC: 3.12 µM
[4]
  P. aeruginosa biofilm log CFU/mL reduction: 2.6 ± 0.2 log CFU/mL
  P. aeruginosa in the biofilm eradicated: 99.8% ± 0.1%
